From patent US20260262641A1 (priority 2023, published 2026)

Assays:
[1] = tested on: ground pearl (Margarodes spp); assay: Field trial in kikuyu turf, control of ground pearl, Sydney (Example 2); format: in vivo
Method: A field trial was conducted in kikuyu turf, to evaluate fenpyroximate for control of ground pearl (Margarodes spp). The trial was located at Sydney University, New South Wales (−33.888, 151.188), in an area with a known infestation of ground pearl.
All treatments were applied using a hand boom fitted with XR11004 nozzles, in a spray volume of 430 L/ha.
The ground pearl density by species was assessed by sampling 20 cores per plot and recording the number of eggs and adults, and Normalized Difference Vegetation Index (NDVI) was assessed 56 days after the third application using a Greenseeker.
(§1) All data was statistically analyzed using analysis of variance and Fisher's protected least significant different test (Fishers LSD). The level of significance for all tests was P<0.05.

[2] = tested on: couch mite (Aceria cynodoniensis); assay: Field trial in hybrid couch turfgrass, control of couch mite (Example 7); format: in vivo
Method: A field trial was conducted in hybrid couch turfgrass, to evaluate fenpyroximate for control of couch mite (Aceria cynodoniensis). The trial was located at Oxley Golf Club, Oxley Queensland (−27.57077, 152.99762). […] All treatments were applied using a hand boom fitted with XR11004 nozzles and in a spray volume of 430 L/ha.
The severity of couch mite damage to the terminal growth point (known as witches' broom) was assessed pre-spraying, then at 42 and 56 days after the second application. The density of couch mite was assessed pre-spraying and at 28 days after the second application. Turf quality was assessed on a 0 to 9 rating scale (0=dead; 9=best quality/color) prior to the first application and 14 days after the second application.
as §1

[3] = tested on: redlegged earth mite (H. destructor; RLEM); assay: whole plant or invertebrate
Method: On the 14th of May 2022, H. destructor were collected from capeweed (Arctotheca calendula) in South Morang, Victoria (−37.625, 145.110), a site with no known history of insecticide application. Mites were collected via suction using a Stihl SH55 blower vacuum, placed in plastic containers with paper towel and vegetation, and transported back to the laboratory, where they were stored at 4° C. until testing.
Serial dilutions were prepared for each insecticide (Table 1), with the addition of a non-ionic surfactant (Tween 20) at 0.01% to aid the spread of the insecticide and ensure even coating. […] Nine concentrations of pyridaben ranging from the proposed field rate of 1480 mL diluted in 100 L of water (1998 mg a.i./L) to 1×10^−5 were serially diluted and tested along with a water control. Eight concentrations of omethoate, ranging from 10 times the field rate of 100 mL diluted in 100 L of water (290 mg a.i./L) to 1×10^−5, were tested along with a water control. Seven concentrations of bifenthrin, ranging from 10 times the field rate of 40 mL diluted in 100 L of water (100 mg a.i./L) to 1×10^−5, were tested along with a water control. For each insecticide concentration tested, approximately 10 mL of solution was poured into a 15 mL plastic vial and swirled to ensure a complete coating, with excess liquid removed. Six vials were coated per concentration and were left to dry overnight. Control vials were treated in the same way, except water (with the addition of 0.01% Tween) was used.
Approximately eight individual H. destructor were then placed into each vial along with 2-3 leaves of common vetch (Vicia sativa), which provided food and humidity. Vials were then sealed with a screw lid and placed in a controlled temperature cabinet at 18° C. After 24-hours exposure, mites were scored as alive (moving freely), incapacitated (inhibited movement), or dead (no movement over a 5 second period).
Dose-response curves were generated by plotting percentage mortality against log concentration. […] Logistic regression is well suited for the analysis of binary response data (e.g., dead/alive). All analyses were conducted using R version 3.3.1 (R Development Core Team 2022).

[4] = versus untreated, P<0.05, with PE 6200
[5] = Halotydeus destructor, 24 h, read-out: % RLEM mortality

## Cc1nn(C)c(Oc2ccccc2)c1C=NOCc1ccc(C(=O)OC(C)(C)C)cc1 [Fenpyroximate]
[1]; Pre-spray (baseline), kikuyu turf, Greenseeker
  NDVI, Pre-spray: 8.0
[1]; sc
  Ground pearls/plot, Adults, Pre-spray: 4.0 a ground pearls/plot
  Ground pearls/plot, Eggs, Pre-spray: 10.3 a ground pearls/plot
[1]; sc, 200 g/ha, 1344 h
  Ground pearls/plot, Adults, 56 DAA3: 12.8 a ground pearls/plot
  Ground pearls/plot, Eggs, 56 DAA3: 5.3 a ground pearls/plot
[1]; sc, 1344 h
  NDVI, 56 DAA3: 7.6
[1]; versus untreated, P<0.05
  turf color and quality / NDVI (in words): significantly improved
[1]; [4]
  density of ground pearl adults (in words): significantly reduced
  density of ground pearl eggs (in words): significantly reduced
[2]; 28 DAA2, product rate mL/ha: Abazine Miticide 1350, Fenpyroximate 50 SC 2000
  Couch mites/3 terminals, 28 DAA2: 45.8 mites/3 terminals
[2]; 14 days after second application, 0=dead, 9=best quality/color, product rate mL/ha: Abazine Miticide 1350, Fenpyroximate 50 SC 2000
  Turf quality (0-9), 14 DAA2: 5.1
[2]; 42 days after second application, product rate mL/ha: Abazine Miticide 1350, Fenpyroximate 50 SC 2000 (100 g ai/ha)
  % Severity mite damage, 42 DAA2: 7.0 a %
[2]; 56 days after second application, product rate mL/ha: Abazine Miticide 1350, Fenpyroximate 50 SC 2000 (100 g ai/ha)
  % Severity mite damage, 56 DAA2: 6.5 a %
[2]; Pre-spray (baseline)
  Couch mites/3 terminals, Pre-spray: 130.5 mites/3 terminals
[2]; Pre-spray (baseline), 0=dead, 9=best quality/color
  Turf quality (0-9), Pre-spray: 4.5
[2]; Pre-spray (baseline), witches' broom
  % Severity mite damage, Pre-spray: 40.0%
[2]; versus untreated, P<0.05
  density of couch mite (in words): significantly both reduced
  turf quality (in words): improved
[3]; 24 hours exposure
  concentrations at which mite mortality was observed: greater than 50 mg a.i./L
[3]; [5]
  mortality at 0.01 µg/mL: 0%
  mortality at 0.1 µg/mL: 0%
  mortality at 1 µg/mL: 0%
  mortality at 10 µg/mL: 0%
  mortality at 30 µg/mL: 0%
  mortality at 50 µg/mL: 6%
  mortality at 100 µg/mL: 30.5%
  mortality at 300 µg/mL: 93.8%
  mortality at 500 µg/mL: 100%
  mortality at 1000 µg/mL: 98.7%
[3]; concentration of 300 g a.i./L (as printed in text)
  control of RLEM: 93.8%
[3]; concentration of 500 g a.i./L (as printed in text)
  control of RLEM: 100%
[3]; laboratory bioassay, 24 hours exposure
  efficacy against RLEM (in words): highly efficacious
